One block for each molecule: values may come before it.
Assays:
[1] = Form A and Form B inter-conversion study (competitive slurry, XRPD); type: physicochemical
Experimental: Competitive slurry experiments were conducted to evaluate the relative stability of Form A and Form B. Inter-conversion study was performed at room temperature and 50° C. using single and binary solvents listed in the Table 1 below. About 80 mg (100 mg for 50° C.) of Form A and Form B (1:1, w/w) was weighed into sample vials (8 mL) and then 3 mL (2 mL for 50° C.) of solvents were added to each vial. The obtained suspensions were kept stirring for 7 days at room temperature and 50° C., then filtered at specified time. The wet and dried solids were analyzed by XRPD (dried in vacuum oven at 45° C.).
Form B was dominant in tested solvent systems with water activity below 0.15 at room temperature (24˜27° C.). […] Pure Form A and Form B were stable during drying process (50° C., vacuum) for at least 2 days.

[2] = Solubility in bio-relevant media; type: physicochemical; settings: for solubility at 24 h: salts; for pH value: solubility sample of salt

- XRPD results of slurry ([1]; 1% water/acetone, 24~27° C., 1 d, after dry): A + B
- XRPD results of slurry ([1]; 1% water/acetone, 24~27° C., 1 d, before dry): A + B
- XRPD results of slurry ([1]; 1% water/acetone, 24~27° C., 3 d, after dry): A + B
- XRPD results of slurry ([1]; 1% water/acetone, 24~27° C., 3 d, before dry): A + B
- XRPD results of slurry ([1]; 1% water/acetone, 24~27° C., 7 d, before dry): A + B(increased)
- XRPD results of slurry ([1]; 30% water/acetone, 24~27° C., 1 d, after dry): A + B
- XRPD results of slurry ([1]; 30% water/acetone, 24~27° C., 1 d, before dry): A + B
- XRPD results of slurry ([1]; 30% water/acetone, 24~27° C., 7 d, before dry): A + B
- XRPD results of slurry ([1]; 30% water/acetone, 50° C., 1 d, after dry): A + B
- XRPD results of slurry ([1]; 30% water/acetone, 50° C., 1 d, before dry): A + B
- XRPD results of slurry ([1]; Acetone (no water), 50° C., 1 d, before dry): A (minor) + B
- XRPD results of slurry ([1]; Acetone(no water), 24~27° C., 1 d, after dry): A + B
- XRPD results of slurry ([1]; Acetone(no water), 24~27° C., 1 d, before dry): A + B
- XRPD results of slurry ([1]; Acetone(no water), 24~27° C., 3 d, after dry): A + B
- XRPD results of slurry ([1]; Acetone(no water), 24~27° C., 3 d, before dry): A + B
- XRPD results of slurry ([1]; Acetone(no water), 24~27° C., 7 d, before dry): A + B(increased)
- XRPD results of slurry ([1]; EtOH/IPA (1/1), 24~27° C., 1 d, after dry): A + B
- XRPD results of slurry ([1]; EtOH/IPA (1/1), 24~27° C., 1 d, before dry): A + B
- XRPD results of slurry ([1]; EtOH/IPA (1/1), 24~27° C., 7 d, before dry): A + B(increased)
- XRPD results of slurry ([1]; EtOH/IPA (7/2), 24~27° C., 1 d, after dry): A + B
- XRPD results of slurry ([1]; EtOH/IPA (7/2), 24~27° C., 1 d, before dry): A + B
- XRPD results of slurry ([1]; EtOH/IPA (7/2), 24~27° C., 7 d, before dry): A + B(increased)
- XRPD results of slurry ([1]; EtOH/water (1/1), 24~27° C., 1 d, after dry): A + B
- XRPD results of slurry ([1]; EtOH/water (1/1), 24~27° C., 1 d, before dry): A + B
- XRPD results of slurry ([1]; EtOH/water (1/1), 24~27° C., 7 d, before dry): A + B
- XRPD results of slurry ([1]; Water, 24~27° C., 1 d, after dry): A + B
- XRPD results of slurry ([1]; Water, 24~27° C., 1 d, before dry): A + B
- XRPD results of slurry ([1]; Water, 24~27° C., 3 d, after dry): A + B
- XRPD results of slurry ([1]; Water, 24~27° C., 3 d, before dry): A + B
- XRPD results of slurry ([1]; Water, 24~27° C., 7 d, before dry): A + B
- XRPD results of slurry ([1]; Water, 50° C., 1 d, after dry): A + B
- XRPD results of slurry ([1]; Water, 50° C., 1 d, before dry): A + B
- XRPD results of slurry ([1]; Water, 50° C., 3 d, after dry): A + B
- XRPD results of slurry ([1]; Water, 50° C., 3 d, before dry): A + B
- XRPD results of slurry ([1]; Water, 50° C., 7 d, before dry): A + B
SMILES: C=CC(=O)Nc1cc(Nc2nccc(Nc3cc(Cl)c(F)cc3C(C)(C)O)n2)c(OC)cc1N1CC[C@@H](N(C)C)C1 [Form A and Form B (1:1, w/w), (R)-N-(5-((4-((5-chloro-4-fluoro-2-(2-hydroxypropan-2-yl)phenyl)amino)pyrimidin-2-yl)amino)-2-(3-(dimethylamino)pyrrolidin-1-yl)-4-methoxyphenyl)acrylamide]

- solubility at 24 h ([2]; FaSSIF): > 10.1 mg/mL
- pH value ([2]; FaSSIF): 5.22
- solubility at 24 h ([2]; FeSSIF): > 9.75 mg/mL
- pH value ([2]; FeSSIF): 4.94
- solubility at 24 h ([2]; SGF, simulated gastric fluid): > 12.2 mg/mL
- pH value ([2]; SGF): 3.98
SMILES: C=CC(=O)Nc1cc(Nc2nccc(Nc3cc(Cl)c(F)cc3C(C)(C)O)n2)c(OC)cc1N1CC[C@@H](N(C)C)C1.O=C(O)/C=C/C(=O)O [Fumaric acid salt, (R)—N-(5-((4-((5-chloro-4-fluoro-2-(2-hydroxypropan-2-yl)phenyl)amino)pyrimidin-2-yl)amino)-2-(3-(dimethylamino)pyrrolidin-1-yl)-4-methoxyphenyl)acrylamide fumarate]

- solubility at 24 h ([2]; FaSSIF): 1.95 mg/mL
- pH value ([2]; FaSSIF): 6.62
- solubility at 24 h ([2]; FeSSIF): > 11.1 mg/mL
- pH value ([2]; FeSSIF): 5.44
- solubility at 24 h ([2]; SGF, simulated gastric fluid): 11.8 mg/mL
- pH value ([2]; SGF): 5.65
SMILES: C=CC(=O)Nc1cc(Nc2nccc(Nc3cc(Cl)c(F)cc3C(C)(C)O)n2)c(OC)cc1N1CC[C@@H](N(C)C)C1.Cl [Hydrochloric acid salt, (R)—N-(5-((4-((5-chloro-4-fluoro-2-(2-hydroxypropan-2-yl)phenyl)amino)pyrimidin-2-yl)amino)-2-(3-(dimethylamino)pyrrolidin-1-yl)-4-methoxyphenyl)acrylamide Hydrochloride]

From patent US20250197377A1, “NOVEL PHARMACEUTICAL SALTS AND POLYMORPHIC FORMS OF AN ERBB AND BTK INHIBITOR” (DIZAL (JIANGSU) PHARMACEUTICAL CO., LTD., priority 2021, published 2025)
